# Test results reported in patent US10532064B2, “Biophosphonate compounds and gamma delta T cell-mediated therapy for treating epstein-barr virus-associated disorders” (priority 2014, dated 2020).
# Assays:
# [1] = system: cytolytic activities of Vγ9Vδ2-T cells against EBV-LCL; assay: Blocking of Vγ9Vδ2-T cell cytotoxicity against EBV-LCL by inhibitors and neutralizing antibodies; assay type: cell-based, human; conditions: E:T 10:1; antibodies 10 μg/ml, CMA and Bcl-2 1 μg/ml
# Method: FIG. 1A: Phenotypes of EBV-LCL and autologous normal human B cells. The white histograms represent MICA/B, Fas, FasL DR4 and DR5, and the gray histograms represent isotype controls. […] FIG. 1C, 1D, 1G: PAM-expanded Vγ9Vδ2 T cells purified by positive selection were co-cultured with autologous EBV-LCL or normal B cells at different E:T ratios (FIG. 1C) or an E:T ratio of 10:1 (FIGS. 1D and 1G) for 4-6 hours. FIG. 1D: The Vγ9Vδ2 T cells were directly co-cultured with or physically separated from autologous EBV-LCLs for 6 hours by using a transwell system. […] FIG. 1G: The perforin inhibitor CMA, granzyme B inactivator Bcl-2, anti-NKG2D (αNKG2D), anti-TRAIL (αTRAIL) and anti-FasL (αFasL) blocking antibodies, or their relevant isotype control (mouse IgG1, mIgG1) were used in co-culture of EBV-LCL and their autologous PAM-expanded Vγ9Vδ2 T cells. The cytotoxicity was shown as the percentage of inhibition relative to those without any treatment. All the data shown as mean±SEM are representative of four independent experiments. *p<0.05.
# EBV-LPD [2] = assay: Control of EBV-LPD by pamidronate in humanized mice (whole huPBMC); assay type: in vivo
# Method: FIG. 8A: Protocol for the control of EBV-LPD by pamidronate (PAM) in humanized mice. Humanized mice were treated with PAM or PBS at day 0, 7, 14, 21, 28 after inoculation of EBV-LCL. FIG. 8B-8D: After treatment with PAM (n=8) or PBS (n=7), the survival (FIG. 8B), tumor incidence (FIG. 8C) and tumor volume (FIG. 8D) were measured at the indicated time.
# (§1) Vγ9Vδ2-T-cell-depleted huPBMC were obtained after double depletions of […] by positive selection with magnetic microbeads. Rag2^−/−γc^−/− mice were transplanted with whole huPBMC or Vγ9Vδ2-T-cell-depleted huPBMC from the same healthy human donor. […] Humanized mice reconstituted with whole huPBMC (PBMC) or Vγ9Vδ2-T-cell-depleted huPBMC (PBMC-γδ-T) were inoculated with EBV-LCL and treated with pamidronate or PBS according to the protocol shown in FIG. 8A. The survival (FIG. 9A), tumor incidence (FIG. 9B) and tumor volume (FIG. 9C) in humanized mice (PBMC+PAM, n=12; PBMC-γδ-T+PAM, n=7; PBMC-γδ-T+PBS, n=6) are shown.
# All animal studies were approved and performed in compliance with the guidelines for the use of experimental animals by the Committee on the Use of Live Animals in the Teaching and Research, the University of Hong Kong. Humanized mice were generated in 4-5 weeks old male or female Rag2^−/−γc^−/− mice by reconstitution of EBV seropositive whole huPBMC or Vγ9Vδ2-T-cell-depleted huPBMC as we described before (Tu et al., 2011). […] Humanized mice or 6-8 week old Rag2^−/−γc^−/− mice were inoculated s.c. with EBV-LCL or EGFP-expressing EBV-LCL (0.1×10^6/mouse). […] For humanized mice, a human equivalent dose of PAM (10 mg/kg body weight; Pamisol; Hospira Austrilia Pty Led) was injected i.p. at indicated time. The mice treated with an equivalent volume of PBS were used as controls. The signs of disease (loss of activity, weight loss, ruffled hair, palpable tumors, and ascites) and survival of mice were monitored. Mice with more than 17 mm of diameter subcutaneous tumor were sacrificed and counted as dying. Otherwise, mice were followed for 100 or 170 days and then killed. All mice were examined for postmortem evidence of tumor. The tumors and organs were collected for histology and immunohistochemistry assays.
# After inoculation with EBV-LCL (1×10^5/mouse) s.c., humanized mice were injected intraperitoneally (i.p.) with pamidronate (10 mg/kg body weight) at day 0, 7, 14, 21 and 28 post EBV-LCL inoculation (FIG. 8A). PBS-treated mice were used as controls.
# Mice reconstituted with whole huPBMC or Vγ9Vδ2-T-cell-depleted huPBMC were inoculated with EBV-LCLs s.c. and injected with pamidronate (10 mg/kg body weight) i.p. at day 0, 7, 14, 21 and 28 post EBV-LCL inoculation.
# EBV-LPD [3] = assay: Pamidronate in humanized mice reconstituted with Vγ9Vδ2-T-cell-depleted huPBMC; assay type: in vivo; conditions: 10 mg/kg i.p. day 0, 7, 14, 21, 28
# Excerpt: as §1
# All animal studies were approved and performed in compliance with the guidelines for the use of experimental animals by the Committee on the Use of Live Animals in the Teaching and Research, the University of Hong Kong. Humanized mice were generated in 4-5 weeks old male or female Rag2^−/−γc^−/− mice by reconstitution of EBV seropositive whole huPBMC or Vγ9Vδ2-T-cell-depleted huPBMC as we described before (Tu et al., 2011). […] The signs of disease (loss of activity, weight loss, ruffled hair, palpable tumors, and ascites) and survival of mice were monitored. Mice with more than 17 mm of diameter subcutaneous tumor were sacrificed and counted as dying. […]
# Vγ9Vδ2-T cells = assay: Expansion of Vγ9Vδ2-T cells from huPBMC in vitro with PAM and IL-2; assay type: cell-based, human
# Method: The data are representative of 4 independent experiments. […] Data are representative of 4 independent experiments. […] Data are representative of 4 independent experiments.
# Briefly, huPBMC were cultured in RPMI 1640 medium supplemented with 10% FBS. Pamidronate was added at day 0 and day 3 to a final concentration 9 μg/ml.
# Human PBMCs were isolated from buffy coat preparation or anticoagulated peripheral blood by Ficoll-paque (GE Health life Science) gradient centrifugation. The PBMCs were cultured in 10% FBS-RPMI1640 supplemented with 15 ul of expansion reagent A; 25 ul of expansion reagent B was added from day 3 post culture. […] Data are representative for 4 independent experiments.
# [4] = Example 5, vs PBS-treated humanized mice
# [5] = Example 6, humanized mice with whole huPBMC
# [6] = post 20 days of in vitro culture in the presence of PAM and IL-2
Molecule,effect on cytolytic activity of Vγ9Vδ2-T cells against EBV-LCL [1],"mice died within 100 days (EBV-LPD [2]; 10 mg/kg i.p. day 0, 7, 14, 21, 28, 1 out of 8 mice, all PBS mice died) [%]","mice with subcutaneous tumor growth within 100 days (EBV-LPD [2]; 10 mg/kg i.p. day 0, 7, 14, 21, 28, 3 out of 8 mice) [%]","frequency of Vγ9Vδ2-T cells in the peripheral blood (EBV-LPD [2]; 10 mg/kg i.p., vs PBS)","persistence of Vγ9Vδ2-T cells in the peripheral blood (EBV-LPD [2]; EBV-LCL-grafted humanized mice, pamidronate-treated)","survival (EBV-LPD [2]; Example 5, PAM n=8 vs PBS n=7)",tumor incidence (EBV-LPD [2]; [4]),tumor volume (EBV-LPD [2]; [4]),tumor occurrence (EBV-LPD [2]; [5]),tumor volume (EBV-LPD [2]; [5]),"survival (EBV-LPD [2]; Example 6, humanized mice with whole huPBMC, n=12)","tumor metastasis in other organs at necropsy (EBV-LPD [2]; day 100, surviving 7 mice)","effects on survival, tumor occurrence and tumor volume (EBV-LPD [3])","activation and expansion of Vγ9Vδ2-T cells (Vγ9Vδ2-T cells; huPBMC, PAM 9 μg/mL, rhIL-2 from day 3)",expansion of Vγ9Vδ2-T cells (mean) (Vγ9Vδ2-T cells; [6]) [fold],expansion of Vγ9Vδ2-T cells (range) (Vγ9Vδ2-T cells; [6]),percentage of Vγ9Vδ2-T cells within the PBMCs (mean) (Vγ9Vδ2-T cells; [6]) [%],"percentage of Vγ9Vδ2-T cells within the PBMCs (range) (Vγ9Vδ2-T cells; post 20 days of in vitro culture in the presence of PAM and IL-2, baseline 1-5% (mean 3%), 4 experiments)"
"C/C=C/[C@H]1O[C@@](O)([C@@H](C)[C@H](O)[C@H](C)[C@H]2OC(=O)/C(OC)=C/C(C)=C/[C@@H](C)[C@@H](O)[C@@H](CC)[C@@H](O)[C@H](C)C/C(C)=C/C=C/[C@@H]2OC)C[C@@H](O[C@H]2C[C@@H](O)[C@H](OC(N)=O)[C@@H](C)O2)[C@@H]1C [CMA, concanamycin A]",strongly inhibited,,,,,,,,,,,,,,,,,
NCCC(O)(P(=O)(O)O)P(=O)(O)O [pamidronate],,12.5,37.5,significantly increased,up to 98 days,significantly prolonged,significantly lower tumor incidence,reduced tumor volume,reduced tumor occurrence,decreased tumor volume,significantly prolonged survival,failed to show any evidence of tumor metastasis,had no such effects,induced selective activation and expansion,198,156-309 fold,82,67-95%
Bcl-2: granzyme B inactivator Bcl-2 (R&D Systems),strongly inhibited,,,,,,,,,,,,,,,,,
